Data published in US12539292B2, “BRM targeting compounds and associated methods of use” (Arvinas Operations, Inc., priority 2018, dated 2026).
Like-named read-outs stand apart in the source and are kept apart here.

Biological target: T1, BRM (Homo sapiens, UniProt P51531)
T1 construct: In-Cell Western Screen of BRM Degradation in SW1573 Cells; endogenous in cells; host or cells: SW1573
Assay: In-cell Western screen of BRM degradation in SW1573 cells (Dmax and DC50)
Format: cell-based
In short: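 SW1573 cells were treated with compound overnight (18-20 h; final DMSO 0.1%), then fixed in 4% PFA, permeabilized with Triton X-100 and blocked. BRM was detected by in-cell Western using 800 nm anti-rabbit and 680 nm anti-mouse secondaries, and Dmax and DC50 were derived from the LI-COR Odyssey signal.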

[1] = target protein degradation, read-out: BRM DC50
[2] = BRM degradation, SW1573 cells, Table 2D, read-out: **Dmax (%) (% degraded)
[3] = BRM degradation, SW1573 cells, Table 2D, read-out: *DC50
[4] = BRM degradation, SW1573 cells, read-out: DC50
[5] = BRM degradation, SW1573 cells, tested at the top concentration of between 0.3 and 10 μM, read-out: Dmax (%) (% degraded)
[6] = BRM degradation, SW1573 cells, when tested at the top concentration of between 0.3 and 10 μM, read-out: Dmax (%) (% degraded)

T1 sequence (P51531 whole entry): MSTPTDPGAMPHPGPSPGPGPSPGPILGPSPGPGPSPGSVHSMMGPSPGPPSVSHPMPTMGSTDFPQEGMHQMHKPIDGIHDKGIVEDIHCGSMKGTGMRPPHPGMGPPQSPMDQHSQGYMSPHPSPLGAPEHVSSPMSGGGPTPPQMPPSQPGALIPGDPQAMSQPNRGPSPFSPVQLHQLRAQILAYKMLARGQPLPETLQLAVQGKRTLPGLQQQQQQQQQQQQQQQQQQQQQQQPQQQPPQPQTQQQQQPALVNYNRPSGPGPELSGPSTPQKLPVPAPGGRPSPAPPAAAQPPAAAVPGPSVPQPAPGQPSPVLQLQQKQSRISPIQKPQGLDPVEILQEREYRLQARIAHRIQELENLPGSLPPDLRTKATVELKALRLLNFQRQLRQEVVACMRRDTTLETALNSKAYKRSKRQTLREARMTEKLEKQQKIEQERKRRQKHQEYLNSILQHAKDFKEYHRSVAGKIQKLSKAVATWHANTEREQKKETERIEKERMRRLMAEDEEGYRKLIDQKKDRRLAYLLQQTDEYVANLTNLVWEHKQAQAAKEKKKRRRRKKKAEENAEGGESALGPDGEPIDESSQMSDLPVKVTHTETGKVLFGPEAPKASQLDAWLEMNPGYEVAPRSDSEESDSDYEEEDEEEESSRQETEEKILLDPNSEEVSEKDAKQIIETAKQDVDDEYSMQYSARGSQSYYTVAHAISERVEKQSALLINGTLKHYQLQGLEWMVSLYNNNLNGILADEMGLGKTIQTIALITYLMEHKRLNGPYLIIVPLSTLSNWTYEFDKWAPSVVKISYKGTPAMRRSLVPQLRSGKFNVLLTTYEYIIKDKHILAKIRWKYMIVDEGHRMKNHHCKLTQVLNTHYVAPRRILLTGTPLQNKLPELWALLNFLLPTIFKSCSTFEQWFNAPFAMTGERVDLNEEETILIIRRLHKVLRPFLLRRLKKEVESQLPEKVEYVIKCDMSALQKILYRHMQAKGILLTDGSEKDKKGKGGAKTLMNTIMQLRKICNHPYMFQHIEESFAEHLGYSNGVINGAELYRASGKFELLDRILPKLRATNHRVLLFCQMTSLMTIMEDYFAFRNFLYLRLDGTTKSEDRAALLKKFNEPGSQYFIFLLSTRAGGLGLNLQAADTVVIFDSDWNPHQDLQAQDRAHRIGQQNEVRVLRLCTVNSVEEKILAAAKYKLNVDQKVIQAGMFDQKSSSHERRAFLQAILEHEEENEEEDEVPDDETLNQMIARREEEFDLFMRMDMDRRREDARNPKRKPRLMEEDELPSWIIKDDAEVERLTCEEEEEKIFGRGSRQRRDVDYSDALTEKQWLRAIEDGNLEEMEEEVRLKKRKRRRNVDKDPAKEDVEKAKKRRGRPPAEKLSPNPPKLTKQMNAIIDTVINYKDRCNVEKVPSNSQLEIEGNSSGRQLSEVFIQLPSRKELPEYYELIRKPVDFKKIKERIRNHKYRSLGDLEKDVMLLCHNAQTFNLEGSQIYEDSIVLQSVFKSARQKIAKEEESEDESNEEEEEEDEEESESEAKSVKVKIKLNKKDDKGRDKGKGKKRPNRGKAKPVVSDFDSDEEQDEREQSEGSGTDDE

Row | Structure (SMILES) | DC50 [4] | Dmax [5] | further results
1 | Cc1ncsc1-c1ccc([C@H](C)NC(=O)[C@@H]2C[C@@H](O)CN2C(=O)[C@H](c2cc(C#CCN3CCC(OC4CC(Oc5cc(N6C7CC[C@@H]6CN(c6cc(-c8ccccc8O)nnc6N)C7)ccn5)C4)CC3)no2)C(C)C)cc1 (stereo partly drawn) [compound 379, (2S,4R)-1-((2S)-2-(3-(3-(4-((1r,3S)-3-((4-(3-(3-amino-6-(2-hydroxyphenyl)pyridazin-4-yl)-3,8-diazabicyclo[3.2.1]octan-8-yl)pyridin-2-yl)oxy)cyclobutoxy)piperidin-1-yl)prop-1-yn-1-yl)isoxazol-5-yl)-3-methylbutanoyl)-4-hydroxy-N-((S)-1-(4-(4-methylthiazol-5-yl)phenyl)ethyl)pyrrolidine-2-carboxamide] | – | – | DC50 [1]: > 30 nM
2 | Cc1nccn1-c1ccc([C@H](C)NC(=O)[C@@H]2C[C@@H](O)CN2C(=O)C(c2cc(N3CCC(CN4CCC(O[C@H]5C[C@H](Oc6cc(N7C8CCC7CN(c7cc(-c9ccccc9O)nnc7N)C8)ccn6)C5)CC4)CC3)no2)C(C)C)cc1 (stereo partly drawn) [compound 607, (2S,4R)-1-((2R)-2-(3-(4-((4-((1r,3r)-3-((4-(3-(3-amino-6-(2-hydroxyphenyl)pyridazin-4-yl)-3,8-diazabicyclo[3.2.1]octan-8-yl)pyridin-2-yl)oxy)cyclobutoxy)piperidin-1-yl)methyl)piperidin-1-yl)isoxazol-5-yl)-3-methylbutanoyl)-4-hydroxy-N-((S)-1-(4-(2-methyl-1H-imidazol-1-yl)phenyl)ethyl)pyrrolidine-2-carboxamide] | – | – | Dmax [2]: > 75%; DC50 [3]: < 2.5 nM
3 | Cc1cc([C@H](C(=O)N2C[C@H](O)C[C@H]2C(=O)N[C@@H](C)c2ccc(-c3scnc3C)cc2)[C@@H](C)COCCOc2cc(N3C4CCC3CN(c3cc(-c5ccccc5O)nnc3N)C4)ccn2)on1 [compound 302, (2S,4R)-1-((2R,3R)-4-(2-((4-(3-(3-amino-6-(2-hydroxyphenyl)pyridazin-4-yl)-3,8-diazabicyclo[3.2.1]octan-8-yl)pyridin-2-yl)oxy)ethoxy)-3-methyl-2-(3-methylisoxazol-5-yl)butanoyl)-4-hydroxy-N-((S)-1-(4-(4-methylthiazol-5-yl)phenyl)ethyl)pyrrolidine-2-carboxamide] | 10 to 30 nM | > 75% | –
4 | Cc1ncoc1-c1ccc([C@H](C)NC(=O)[C@@H]2C[C@@H](O)CN2C(=O)[C@H](c2cc(OCCN3CCC(O[C@H]4C[C@H](Oc5cc(N6C7CCC6CN(c6cc(-c8ccccc8O)nnc6N)C7)ccn5)C4)CC3)no2)C(C)C)cn1 [compound 229, (2S,4R)-1-((2S)-2-(3-(2-(4-((1r,3S)-3-((4-(3-(3-amino-6-(2-hydroxyphenyl)pyridazin-4-yl)-3,8-diazabicyclo[3.2.1]octan-8-yl)pyridin-2-yl)oxy)cyclobutoxy)piperidin-1-yl)ethoxy)isoxazol-5-yl)-3-methylbutanoyl)-4-hydroxy-N-((S)-1-(6-(4-methyloxazol-5-yl)pyridin-3-yl)ethyl)pyrrolidine-2-carboxamide] | > 30 nM | – | –
5 | CC(C)[C@@H](C(=O)N1C[C@H](O)C[C@H]1C(=O)N[C@@H](C)c1ccc(-n2ccnn2)cc1)c1cc(OCCN2CCN(CCOc3cc(N4C5CCC4CN(c4cc(-c6ccccc6O)nnc4N)C5)ccn3)CC2)no1 [compound 293, (2S,4R)-N-((S)-1-(4-(1H-1,2,3-triazol-1-yl)phenyl)ethyl)-1-((2R)-2-(3-(2-(4-(2-((4-(3-(3-amino-6-(2-hydroxyphenyl)pyridazin-4-yl)-3,8-diazabicyclo[3.2.1]octan-8-yl)pyridin-2-yl)oxy)ethyl)piperazin-1-yl)ethoxy)isoxazol-5-yl)-3-methylbutanoyl)-4-hydroxypyrrolidine-2-carboxamide] | 2.5 to 10 nM | > 75% | –
6 | Cc1nccn1-c1ccc([C@H](C)NC(=O)[C@@H]2C[C@@H](O)CN2C(=O)[C@H](c2cc(OCCN3CCC(O[C@H]4C[C@H](Oc5cc(N6C7CCC6CN(c6cc(-c8ccccc8O)nnc6N)C7)ccn5)C4)CC3)no2)C(C)C)cc1 [compound 176, (2S,4R)-1-((2S)-2-(3-(2-(4-((1r,3S)-3-((4-(3-(3-amino-6-(2-hydroxyphenyl)pyridazin-4-yl)-3,8-diazabicyclo[3.2.1]octan-8-yl)pyridin-2-yl)oxy)cyclobutoxy)piperidin-1-yl)ethoxy)isoxazol-5-yl)-3-methylbutanoyl)-4-hydroxy-N-((S)-1-(4-(2-methyl-1H-imidazol-1-yl)phenyl)ethyl)pyrrolidine-2-carboxamide] | > 30 nM | < 50% | –
7 | Cc1ncsc1-c1ccc([C@H](C)NC(=O)[C@@H]2C[C@@H](O)CN2C(=O)[C@@H](c2cc(OCCN3CCN(C[C@H]4C[C@H](Oc5cc(N6C7CCC6CN(c6cc(-c8ccccc8O)nnc6N)C7)ccn5)C4)C[C@@H]3C)no2)C(C)C)cn1 [compound 296, (2S,4R)-1-((2R)-2-(3-(2-((2S)-4-(((1r,3S)-3-((4-(3-(3-amino-6-(2-hydroxyphenyl)pyridazin-4-yl)-3,8-diazabicyclo[3.2.1]octan-8-yl)pyridin-2-yl)oxy)cyclobutyl)methyl)-2-methylpiperazin-1-yl)ethoxy)isoxazol-5-yl)-3-methylbutanoyl)-4-hydroxy-N-((S)-1-(6-(4-methylthiazol-5-yl)pyridin-3-yl)ethyl)pyrrolidine-2-carboxamide] | < 2.5 nM | > 75% | –
8 | Cc1ncsc1-c1ccc(CNC(=O)[C@@H]2C[C@@H](O)CN2C(=O)[C@@H](c2cc(OCCN3CCN(CCCc4cc(N5C6CCC5CN(c5cc(-c7ccccc7O)nnc5N)C6)ccn4)CC3)no2)C(C)C)cc1 [compound 44, (2S,4R)-1-[(2R)-2-[3-(2-[4-[3-(4-[3-[3-amino-6-(2-hydroxyphenyl)pyridazin-4-yl]-3,8-diazabicyclo[3.2.1]octan-8-yl]pyridin-2-yl)propyl]piperazin-1-yl]ethoxy)-1,2-oxazol-5-yl]-3-methylbutanoyl]-4-hydroxy-N-[[4-(4-methyl-1,3-thiazol-5-yl)phenyl]methyl]pyrrolidine-2-carboxamide] | 10 to 30 nM | – | Dmax [6]: > 75%
9 | Cc1ncsc1-c1ccc([C@H](C)NC(=O)[C@@H]2C[C@@H](O)CN2C(=O)[C@H](c2cc(OCC#Cc3ccc(O[C@H]4C[C@H](Oc5cc(N6C7CCC6CN(c6cc(-c8ccccc8O)nnc6N)C7)ccn5)C4)cn3)no2)C(C)C)cc1 [compound 69, (2S,4R)-1-((2S)-2-(3-((3-(5-((1r,3S)-3-((4-(3-(3-amino-6-(2-hydroxyphenyl)pyridazin-4-yl)-3,8-diazabicyclo[3.2.1]octan-8-yl)pyridin-2-yl)oxy)cyclobutoxy)pyridin-2-yl)prop-2-yn-1-yl)oxy)isoxazol-5-yl)-3-methylbutanoyl)-4-hydroxy-N-((S)-1-(4-(4-methylthiazol-5-yl)phenyl)ethyl)pyrrolidine-2-carboxamide] | 10 to 30 nM | – | Dmax [6]: > 75%
10 | Cc1ncsc1-c1ccc([C@H](C)NC(=O)[C@@H]2C[C@@H](O)CN2C(=O)[C@H](c2cc(OCCN3CCC(O[C@H]4C[C@H](Oc5cnnc(N6C7CCC6CN(c6cc(-c8ccccc8O)nnc6N)C7)c5)C4)CC3)no2)C(C)C)cc1 [compound 470, (2S,4R)-1-((2S)-2-(3-(2-(4-((1r,3S)-3-((6-(3-(3-amino-6-(2-hydroxyphenyl)pyridazin-4-yl)-3,8-diazabicyclo[3.2.1]octan-8-yl)pyridazin-4-yl)oxy)cyclobutoxy)piperidin-1-yl)ethoxy)isoxazol-5-yl)-3-methylbutanoyl)-4-hydroxy-N-((S)-1-(4-(4-methylthiazol-5-yl)phenyl)ethyl)pyrrolidine-2-carboxamide] | – | – | DC50 [1]: > 30 nM
11 | Cc1ncsc1-c1ccc([C@H](C)NC(=O)[C@@H]2C[C@@H](O)CN2C(=O)[C@@H](c2cc(OCCN3CCN(CCOCCn4cc(-c5cc(-c6ccccc6O)nnc5N)cn4)CC3)no2)C(C)C)cc1 [compound 62, (2S,4R)-1-((R)-2-(3-(2-(4-(2-(2-(4-(3-amino-6-(2-hydroxyphenyl)pyridazin-4-yl)-1H-pyrazol-1-yl)ethoxy)ethyl)piperazin-1-yl)ethoxy)isoxazol-5-yl)-3-methylbutanoyl)-4-hydroxy-N-((S)-1-(4-(4-methylthiazol-5-yl)phenyl)ethyl)pyrrolidine-2-carboxamide] | 2.5 to 10 nM | – | Dmax [6]: > 75%
12 | Cc1ncsc1-c1ccc([C@H](C)NC(=O)[C@@H]2C[C@@H](O)CN2C(=O)[C@H](c2cc(OCC[C@H]3CCN(C[C@H]4C[C@H](Oc5cc(N6C7CCC6CN(c6cc(-c8ccccc8O)nnc6N)C7)ccn5)C4)C[C@@H]3C)no2)C(C)C)cc1 (racemic) [compound 578, (2S,4R)-1-((2S)-2-(3-(2-((3R,4R)-1-(((1r,3R)-3-((4-(3-(3-amino-6-(2-hydroxyphenyl)pyridazin-4-yl)-3,8-diazabicyclo[3.2.1]octan-8-yl)pyridin-2-yl)oxy)cyclobutyl)methyl)-3-methylpiperidin-4-yl)ethoxy)isoxazol-5-yl)-3-methylbutanoyl)-4-hydroxy-N-((S)-1-(4-(4-methylthiazol-5-yl)phenyl)ethyl)pyrrolidine-2-carboxamide] | – | – | Dmax [2]: > 75%; DC50 [3]: < 2.5 nM
13 | Cc1ncsc1-c1ccc([C@H](C)NC(=O)[C@@H]2C[C@@H](O)CN2C(=O)[C@@H](c2cc(N3CCC[C@H](CN4CCC(O[C@H]5C[C@H](Oc6cc(N7C8CCC7CN(c7cc(-c9ccccc9O)nnc7N)C8)ccn6)C5)CC4)C3)no2)C(C)C)cc1 (single isomer, unassigned) [compound 656] | < 2.5 nM | – | Dmax (BRM degradation, SW1573 cells, read-out: Dmax (% degraded)): > 75%
